In article PMC8781869, “Thioester-Containing Benzoate Derivatives with α-Glucosidase Inhibitory Activity from the Deep-Sea-Derived Fungus Talaromyces indigoticus FS688” (Marine Drugs, 2021):

Assays:
[1] = molecular target: α-glucosidase from Saccharomyces cerevisiae; assay: α-Glucosidase inhibition assay (pNPG substrate, absorbance at 405 nm); assay type: biochemical; settings: for IC50: in vitro, PBS pH 7.0, 37 °C, triplicate, read-out: α-Glucosidase inhibitory activity IC50; for α-glucosidase inhibitory effect at a single concentration: at a concentration of 100 μM
Method: An […] were used to measure the circular dichroism (ECD) and the UV spectra, respectively. ECD and UV spectra were recorded at the range of 200–400 nm under N2 gas […]. IR spectra were recorded on a Shimadzu IR Affinity-1 spectrophotometer. All the NMR spectra were measured on a 600 MHz Bruker Avance-III HD spectrometer and the tetramethylsilane was used as an internal standard. HR-ESI-MS was measured on a Bruker maXis high-resolution mass spectrometer. A Shimadzu LC-20 AT (equipped with an SPD-M20A PDA detector) was used for the preparative separations. The ACE 5 PFP-C18 column (250 × 10.0 mm, 5 μm, 12 nm) was used for semi-preparative HPLC separation and the CHIRAL-MD (2)-RH column (250 × 10.0 mm, 5 μm) was used for chiral separation (Guangzhou FLM Scientific Instrument Co., Ltd, Guangzhou, China). The commercial silica gel (SiO2; 200–300 mesh; Qingdao Marine Chemical Plant, Qingdao, China) and Sephadex LH-20 gel (GE Healthcare Bio-Sciences ABSE-751, Uppsala, Sweden) were used for column chromatography. All solvents were of analytical grade (Guangzhou Chemical Regents Company, Ltd., Guangzhou, China). The natural sea salt was purchased from Guangdong Yueyan saltern. The α-glucosidase from Saccharomyces cerevisiae and p-nitrophenyl-α-d-glucopyranoside (p-NPG) used in bioassays were purchased from Sigma-Aldrich (St. Louis, MO, USA).
The method used for the α-glucosidase inhibitory activity assay was based on previously reported literature with slight modification. The pre-reaction mixture consisted of 130 μL of PBS (100 mM, pH 7.0), 30 μL of enzyme (1 U/mL) and 0.5 μL of the test compounds at different concentrations. After incubation at 37 °C for 10 min, 40 μL of pNPG was added and the mixture was further incubated at 37 °C for 15 min. Finally, the absorbance was measured at 405 nm on an automatic microplate reader. […] All experiments were carried out in triplicate.

α-glucosidase = test system: α-glucosidase; design: method as in PMID 24955555; settings: previously reported screening; cited from earlier work

| SMILES | IC50 [1] [µM] | α-glucosidase inhibitory effect at a single concentration [1] | α-glucosidase inhibitor (qualitative) (α-glucosidase) |
| --- | --- | --- | --- |
| CSC(=O)c1c(C)cc2c(c1O)CC(C(C)(C)OC1OC(CO)C(O)C(O)C1O)O2 (stereo not drawn) [Compound 2, Eurothiocin D] | 5.4 | – | – |
| CSC(=O)c1c(C)cc(O)c(CC=C(C)C)c1O [Compound 3, Eurothiocin E] | > 100 | weak inhibitory effects | – |
| CSC(=O)c1c(C)cc(O)c(C/C=C(\C)CO)c1O [Compound 4, Eurothiocin F] | 33.6 | – | – |
| CSC(=O)c1c(C)cc(O)c(CCC(C)(C)O)c1O [Compound 5, Eurothiocin G] | 72.1 | – | – |
| CSC(=O)c1c(C)cc2c(c1O)C[C@H](C(C)(C)O)O2 [Compound 7, eurothiocin A] | – | – | potential α-glucosidase inhibitor |
| COc1cc(O)cc(C)c1C(=O)SC [Compound 6, Eurothiocin H] | > 100 | weak inhibitory effects | – |
| COc1c(C)c(C(=O)SC)c(O)c2c1OC(C(C)(C)O)C2 (stereo not drawn) [Compound 1, Eurothiocin C] | – | weak inhibitory effects | – |
